Measured values reported in patent US20060014709A1, “Drug or cosmetic” (priority 2002, published 2006).
“And” between values parts separate entries of the source, which are not always exact repeats. Identical values can stand only once. “Also recorded” adds a separate entry of the source. Marks after values point to notes of the source that are not given here.

What was measured:
Type in all cases: in vivo
[1] = tested on: male SD rats, obstruction-released kidney (glomerular lesions and tubulointerstitial lesions); experiment: Obstruction release model after complete obstruction of unilateral ureter for 14 days (Example 2-1); design: key to Tubulointerstitial lesions: level of lesions (quality): summed lesion score: + = 1, ++ = 2, +++ = 3 points; settings: rat
From the text: (§1) That is, the rat was laparotomized under anesthesia with ether and left ureter was ligated with 7-0 Nylon at the height of the margin of lower pole of kidney to close the abdomen. On the 14th day after obstruction, the obstruction was released and urinary passage was reconstructed using a cuff. Thus, after 14 days, the part of ligated obstructed ureter was resected, a polyethylene tube of 25 gages (manufactured by Nippon Sherwood) was used as a cuff and inserted into and retained at the lumen from the cut end of the lower normal ureter, then the cuff was also retained in the expanded upper ureter and each of them was ligated and fixed by 7-0 Nylon to reconstruct the urinary passage. At the same time, the right kidney at the opposite side was excised. After the release of the obstruction, body weight was measured, blood was drawn on the 2nd day, 5th day and 7th day from the release to measure serum creatinine, then the rat was killed under anesthesia and the left obstruction-released kidney was excised.
With regard to the excised kidney, there were carried out measurements of weight of the kidney, creatinine concentration mg/dl in plasma as an indicator of kidney function and pathological test for the kidney, and also leukocyte cells which infiltrate the obstruction-released kidney were immunopathologically studied with cell surface markers for ED1 macrophages, CD11b (ED8) positive macrophages and CD5 positive lymphocytes. A number of positive cells was expressed as a number of cells per glomerulus from measured numbers of positive cells in five glomeruli, and for a number in tubulointerstitial tissue, it was expressed by the total number of cells existing in five fields of 200×magnification. For macrophages, a number of CD11b positive cells existing in glomerulus was considered as a number of CD11b^+CD2^+ macrophages and a case of existing not less than one positive cell per glomerulus was considered as positive (+). In the tubulointerstitial tissue, a number of […] 60 CD11b positive cells was considered as positive (+), or a case of CD11b^−CD2^+ macrophages dominantly increasing. Scoring of evaluation of tubulointerstitial lesions was as follows: + gets 1-point as a light lesion; ++ gets 2-point as a moderate lesion; and +++ gets3-point as a severe lesion. For glomerular lesions, when a proportion of lesioned glomeruli was decreased to not more than 40%, and for tubulointerstitial lesions, when a score of the lesions was not more than 4, it was considered as improved.
For glomerular lesions, by counting glomeruli causing thickening of Bowman's capsule wall and glomerular hyalinosis, a proportion of glomeruli having lesions was calculated. For tubulointerstitial lesions, by qualifying hyperplasia of tubular basement membrane and interstitial fibrosis, levels of the lesions were represented.
(§2) An in vivo biological test was carried out for the γ-lactone derivative according to the present invention using this model. Bulk powder of a test compound was dissolved in sterile physiological saline together with gum arabic, and concentrations of the test compound and gum arabic were adjusted to 30 mg/mL and 5% respectively. The preparation was administered orally or subcutaneously injected at the dose of 30 mg/kg or 3 mg/kg every day. The administration was conducted for the total 21 days of the obstructed period for 14 days and after release of the obstruction for 7 days.
For test groups, a group administered single compound group, a group administered both compound group and a control group administered solution of gum arabic were set up and compared for renal functions and morphological evaluations, as well as numbers of ED1, CD5, CD11b positive cells by means of immunopathology.

[2] = tested on: male SDT rats (spontaneously type II diabetes model), complete skin-excised wounds; experiment: Complete skin-excised model, wound healing; settings: SDT rat, 10 mg/kg subcutaneously every day
From the text: Using male SDT rats of 28-30 weeks age, which were a spontaneously type II diabetes model, promoting effect on repair and regeneration in wound healing after complete skin excision were examined according to a partially modified method of Breitbout AS et al. (Ann Plast Surg 1999, 43: 632). That is, an animal was shaved at its back under anesthesia with ether, and skin in 2×2 cm size was excised together with panniculus carnosus in same size to make two complete skin-excised wounds per animal.
Healings of the wounds were observed on the 1st day, 4th day, 7th day, 12h day, 15th day, 21st day and 28th day from the operation. An area of the wounds was obtained as the product of the average vertical length and the average horizontal length which were measured along with a direction of the longest part in the wound.
A test compound was dissolved in sterile physiological saline together with gum arabic. Concentrations of the test compound and gum arabic were adjusted to 30 mg/mL and 5% respectively. The preparation was subcutaneously injected at the dose of 10 mg/kg every day. The administration was started on 6 days before the operation and continued to 28 days after the operation.

[3] = tested on: male SD rats, obstruction-released kidney (glomerular lesions and tubulointerstitial lesions); experiment: Obstruction release model after complete obstruction of unilateral ureter for 14 days (Example 2-2); design: key to Tubulointerstitial lesions: level of lesions: summed lesion score; + = 1, ++ = 2, +++ = 3; ≤6.5 improved; settings: rat, 30 mg/kg subcutaneously
From the text: as §1, §2
For cell surface markers of leukocyte cells which infiltrate the obstruction-released kidney, ED1, CD11b (ED8), CD5 and CD2 were used. […] For CD5^+, a number of not less than 20 per glomerulus was considered as positive. For glomerular lesions, which was characterized by Bowman's capsule wall, glomerular hyalinosis, dilation of urinary space pole and hypertrophy of parietal cells, 50 glomeruli were evaluated to obtain a proportion of pathologic glomeruli. For tubulointerstitial lesions, levels of the lesions were represented by qualifying hyperplasia of tubular basement membrane, tubular enlargement and atrophy and interstitial fibrosis. Scoring was as follows: + gets 1-point as a light lesion; ++ gets 2-point as a moderate lesion; and +++ gets 3-point as a severe lesion. Levels of cell infiltration were evaluated qualitatively according to the above three-point scale. For glomerular lesions, when a proportion of lesioned glomeruli was decreased to not more than 20%, and for tubulointerstitial lesions, when a score of the lesions was not more than 6.5, it was considered as improved.
Numbers of cells positive for CD11b (ED8), CD2 and CD5 were compared by means of immunopathology, and CD11b^+CD2^+ macrophages were considered as regeneration-promoting macrophages in glomeruli and CD11b^−CD2^+CD5+ macrophages were considered as regeneration-promoting macrophages to tubulointerstitial lesions, and herewith, it was estimated whether each cell group is quantitatively dominant or not.

[4] = 30 mg/kg subcutaneously every day for 21 days, one value per animal, 30 mg/kg

C[C@@H](OC(=O)[C@@]1(Oc2ccc(F)cc2)CCC(=O)O1)c1ccc2ccccc2c1 [compound (II-1), (R)-1-naphthalen-2-ylethyl (R)-2-(4-fluorophenoxy)-5-oxotetrahydrofuran-2-carboxylate]
cases with increased regeneration-promoting CD11b^+CD2^+ macrophages to glomerular lesions ([1]; 30 mg/kg subcutaneously): all five cases
cases with increased regeneration-promoting CD11b^−CD2^+ macrophages to tubulointerstitial lesions ([1]; 30 mg/kg subcutaneously): four of five cases
pathological improvement of glomerular lesions (cases) ([1]; 30 mg/kg subcutaneously): four of five cases
pathological improvement of tubulointerstitial lesions (cases) ([1]; 30 mg/kg subcutaneously): no tubulointerstitial lesion was improved
Regeneration CD11b^+CD2^+ macrophages to glomerular lesions, Determination: increase = + ([1]; 30 mg/kg subcutaneously every day for 21 days, one value per animal): + (a case of existing not less than one positive cell per glomerulus was considered as positive (+))
Coincidence of two regeneration macrophages being positive [1, 4]: Coincident; also recorded: Not coincident
Glomerular lesions: proportion of lesioned glomeruli (%) [1, 4]: 10% and 14% and 22% and 57% and 23%
Number of regeneration CD11b^+CD2^+ macrophages to glomerular lesions: number of positive cells per glomerulus [1, 4]: 1.2 cells per glomerulus and 1.7 cells per glomerulus and 1.1 cells per glomerulus and 2.8 cells per glomerulus and 2.0 cells per glomerulus
Number of regeneration CD11b^−CD2^+ macrophages to tubulointerstitial lesions: number of positive cells (CD11b) in five fields of 200× magnification [1, 4]: 39 cells in five fields of 200× m and 49 cells in five fields of 200× m and 15 cells in five fields of 200× m and 65 cells in five fields of 200× m and 26 cells in five fields of 200× m
Regeneration CD11b^−CD2^+ macrophages to tubulointerstitial lesions, Determination: increase + [1, 4]: + (a number of not more than 60 CD11b positive cells was considered as positive (+))
Serum creatinine [1, 4]: 2.6 mg/dl and 1.7 mg/dl (2×) and 2.0 mg/dl and 1.8 mg/dl
Tubulointerstitial lesions: level of lesions (quality) [1, 4]: 7.5 and 9.0 (2×) and 8.0 and 6.5
Excised wound area (cm^2) ([2]; 1st day after complete skin excision): 3.33 cm^2
Excised wound area (cm^2) ([2]; 4th day after complete skin excision): 2.31 cm^2
Excised wound area (cm^2) ([2]; 7th day after complete skin excision): 1.62 cm^2
Excised wound area (cm^2) ([2]; 12th day after complete skin excision): 0.52** cm^2
Excised wound area (cm^2) ([2]; 15th day after complete skin excision): 0.55 cm^2
Excised wound area (cm^2) ([2]; 21st day after complete skin excision): 0.44 cm^2
Crust formation/number of wound ([2]; 21st day after the operation): 0/8
crust formation on the surface of repaired wounds (in words) ([2]; 28th day): no crust formation occurred
Excised wound area (cm^2) ([2]; 28th day after complete skin excision): 0.29 cm^2
Crust formation/number of wound ([2]; 28th day after the operation): 1/8
promoting effect on wound healing (in words) ([2]; versus the control group, 10 mg/kg): significant promoting effect on wound healing at 12th day after the operation; also recorded: promoting effect on healing of epidermis
cases in which regeneration-promoting CD11b^+CD2^+ macrophages were predominant in glomeruli [3]: all five cases
cases in which regeneration-promoting CD11b^−CD2^+CD5+ macrophages were predominant in tubulointerstitial lesions [3]: negative in tubulointerstitial lesions in all cases
pathological improvement of glomerular lesions (cases) [3]: only one case
pathological improvement of tubulointerstitial lesions (cases) [3]: all five cases
Regeneration macrophages to glomerular lesions, Determination Increase + ([3]; one value per animal): + (a case of existing not less than one positive cell per glomerulus was considered as positive (+))
Degree of cell infiltration ([3]; one value per animal, 30 mg/kg): +++
Number of regeneration CD11b^+CD2^+ macrophages to glomerular lesions: number of positive cells per glomerulus CD11b^+CD2^+ ([3]; one value per animal, 30 mg/kg): 1.2 cells per glomerulus and 1.7 cells per glomerulus and 1.1 cells per glomerulus and 2.8 cells per glomerulus and 2.0 cells per glomerulus
Number of regeneration CD11b^−CD2^+CD5^+ macrophages to tubulointerstitial lesions: number of positive cells in five fields of 200× magnification, CD5^+ ([3]; one value per animal, 30 mg/kg): 6 cells in five fields of 200× m and 9 cells in five fields of 200× m and 3 cells in five fields of 200× m (2×) and 4 cells in five fields of 200× m
Number of regeneration CD11b^−CD2^+CD5^+ macrophages to tubulointerstitial lesions: number of positive cells in five fields of 200× magnification, CD11b^+ ([3]; one value per animal, 30 mg/kg): 39 cells in five fields of 200× m and 49 cells in five fields of 200× m and 15 cells in five fields of 200× m and 65 cells in five fields of 200× m and 26 cells in five fields of 200× m
Serum creatinine ([3]; one value per animal, 30 mg/kg): 2.6 mg/dl and 1.7 mg/dl (2×) and 2.0 mg/dl and 1.8 mg/dl
Tubulointerstitial lesions: level of lesions ([3]; one value per animal, 30 mg/kg): 8.0 (4×) and 6.0
Glomerular lesions: proportion of lesioned glomeruli (%) ([3]; one value per animal, 50 glomeruli evaluated, 30 mg/kg): 16% (2×) and 12% (2×) and 8%
